Source: patent US20070207992A1, “Geldanamycin derivatives and method of use thereof” (Board of Trustees of Michigan State University, priority 2006, published 2007)
Structures can show the parent of a compound that is named as a salt. Where two headings read alike, the source gives them in different places.

Tests used:
P. falciparum W2 = assay: Testing of compounds against P. falciparum strain W2; type: cell-based; conditions: Plasmodium falciparum
Description: (§1) Parasitic Lethality: The geldanamycin derivatives were subjected to further testing for lethality to the P. falciparum parasite itself. IC50 values were then obtained as illustrated in Table 1 in Example 3. Samples of the literature compound 17-N-allyl-17-demethoxygeldanamycin was synthesized and tested for killing of parasites. Preferably the drugs are selective for parasitic hsp90 homologs over human hsp90 and have minimal human toxicity. Geldanamycin derivatives of this type have potential for being novel drugs in the treatment of parasitic diseases. The medical community will be able to use these new anti-infective medications alone or in combination with other anti-infective medications. For example, the geldanamycin derivatives of the present invention can be used in combination with chloroquine, since geldanamycin and chloroquine are synergistic inhibitors of Plasmodium falciparum growth as described in Kumar et al. Malaria Journal 2:30 (2003).
(§2) Both parasite strains are chloroquine and pyrimethamine resistant and TM91C235 is also mefloquine resistant.

P. falciparum TM91C235 = assay: Testing of compounds against P. falciparum strain TM91C235; type: cell-based; conditions: Plasmodium falciparum
Description: as §1, §2

[1] = target strain W2 (chloroquine and pyrimethamine resistant), read-out: IC50
[2] = target strain W2 (chloroquine and pyrimethamine resistant), read-out: IC90
[3] = target strain TM91C235 (chloroquine, pyrimethamine and mefloquine resistant), read-out: IC50
[4] = target strain TM91C235 (chloroquine, pyrimethamine and mefloquine resistant), read-out: IC90

IC50 (P. falciparum W2; [1]) | IC90 (P. falciparum W2; [2]) | IC50 (P. falciparum TM91C235; [3]) | IC90 (P. falciparum TM91C235; [4]) | Compound | IC50 (P. falciparum W2; W2) | IC90 (P. falciparum W2; W2) | IC50 (P. falciparum TM91C235) | IC90 (P. falciparum TM91C235)
– | – | – | – | CCN(CC)CCCC(C)Nc1ccnc2cc(Cl)ccc12 (stereo not drawn) [Chloroquine, reference compound] | 0.0297 µg/mL | 0.0378 µg/mL | 0.125 µg/mL | 0.16 µg/mL
0.65 µg/mL | 1.79 µg/mL | 1.03 µg/mL | 2.53 µg/mL | CO[C@H]1/C=C\C=C(/C)C(=O)NC2=CC(=O)C(N3CCC3)=C(C[C@@H](C)C[C@H](OC)[C@H](OC(=O)CCCN)[C@@H](C)/C=C(\C)[C@@H]1OC(N)=O)C2=O [Compound A, 11-O-(4-Aminobutyryl)-17-(1-azetidinyl)-17-demethoxygeldanamycin trifluoroacetate] | – | – | – | –
0.786 µg/mL | 2.73 µg/mL | 2.71 µg/mL | 4.02 µg/mL | CCCC(=O)O[C@H]1/C(C)=C/[C@H](C)[C@@H](O)[C@@H](OC)C[C@H](C)CC2=C(N3CCC3)C(=O)C=C(NC(=O)/C(C)=C/C=C\[C@@H]1OC)C2=O [Compound B, 17-(1-Azetidinyl)-7-butyryl-7-decarbamyl-17-demethoxygeldanamycin] | – | – | – | –
0.875 µg/mL | 3.06 µg/mL | 2.64 µg/mL | 3.95 µg/mL | CO[C@H]1/C=C\C=C(/C)C(=O)NC2=CC(=O)C(N3CCC3)=C(C[C@@H](C)C[C@H](OC)[C@H](O)[C@@H](C)/C=C(\C)[C@@H]1OC(=O)C1CC1)C2=O [Compound C, 17-(1-Azetidinyl)-7-(cyclopropanyl)carbonyl-7-decarbamyl-17-demethoxygeldanamycin] | – | – | – | –
0.958 µg/mL | 6.18 µg/mL | 4.04 µg/mL | 8.41 µg/mL | CO[C@H]1/C=C\C=C(/C)C(=O)NC2=CC(=O)C(N3CCC3)=C(C[C@@H](C)C[C@H](OC)[C@H](O)[C@@H](C)/C=C(\C)[C@@H]1O)C2=O [Compound D, 17-(1-Azetidinyl)-7-decarbamyl-17-demethoxygeldanamycin] | – | – | – | –
– | – | – | – | CO[C@H]1/C=C\C=C(/C)C(=O)NC2=CC(=O)C(N3CCC3)=C(C[C@@H](C)C[C@H](OC)[C@H](O)[C@@H](C)/C=C(\C)[C@@H]1OC(=O)c1ccccc1)C2=O [Compound E, 17-(1-Azetidinyl)-7-benzoyl-7-decarbamyl-17-demethoxygeldanamycin] | 1.26 µg/mL | 5.43 µg/mL | 4.29 µg/mL | 6.07 µg/mL
0.909 µg/mL | 3.74 µg/mL | 3.03 µg/mL | 5.54 µg/mL | CCC(=O)O[C@H]1/C(C)=C/[C@H](C)[C@@H](O)[C@@H](OC)C[C@H](C)CC2=C(N3CCC3)C(=O)C=C(NC(=O)/C(C)=C/C=C\[C@@H]1OC)C2=O [Compound F, 17-(1-Azetidinyl)-7-decarbamyl-17-demethoxy-7-propionylgeldanamycin] | – | – | – | –
0.00163 µg/mL | 0.00409 µg/mL | 0.0138 µg/mL | 0.0291 µg/mL | OC(c1cc(C(F)(F)F)nc2c(C(F)(F)F)cccc12)C1CCCCN1 (stereo not drawn) [Mefloquine, reference compound] | – | – | – | –

Compound | IC50 (P. falciparum W2; [1]) | IC90 (P. falciparum W2; [2]) | IC50 (P. falciparum TM91C235; [3]) | IC90 (P. falciparum TM91C235; [4]) | IC50 (P. falciparum W2; W2) | IC90 (P. falciparum W2; W2) | IC50 (P. falciparum TM91C235) | IC90 (P. falciparum TM91C235)
CO[C@H]1/C=C\C=C(/C)C(=O)NC2=CC(=O)C(N3CCC3)=C(C[C@@H](C)C[C@H](OC)[C@H](O)[C@@H](C)/C=C(\C)[C@@H]1OC(N)=O)C2=O [Compound G, 17-(1-Azetidinyl)-17-demethoxygeldanamycin] | 0.0683 µg/mL | 0.208 µg/mL | 0.169 µg/mL | 0.346 µg/mL | – | – | – | –
